Data taken from publication PMC6273932, “Xanthium strumarium as an Inhibitor of α-Glucosidase, Protein Tyrosine Phosphatase 1β, Protein Glycation and ABTS^+ for Diabetic and Its Complication” (Molecules, 2016).
Converted amounts (≈) assume the structure as drawn.

Columns and labels:
[1] = tested on: advanced glycation end products (AGEs); experiment: AGEs inhibitory activity, bovine serum albumin-methylglyoxal assay (fluorescence); format: biochemical; conditions: for IC50 AGEs: - is no activity
Description: The modified procedure of Lee et al. was followed. Bovine serum albumin (10 mg/mL) was incubated with 5 mM methylglyoxal in sodium phosphate buffer (100 mM; pH 7.4). […] All of the reagents and samples were […] by filtration through 0.2 μm membrane filters and the mixture was incubated at 37 °C for 7 days. The fluorescence intensity was measured at an excitation wavelength of 330 nm and an emission wavelength of 410 nm with a LS50B fluorescence spectrometer Perkin-Elmer Ltd., (Buckinghamshire, FLS, UK). Aminoguanidine was also tested as a known inhibitor.

[2] = tested on: recombinant aldose reductase; conditions: compounds from X. strumarium; cited from earlier work
[3] = tested on: α-glucosidase from Saccharomyces sp.; experiment: α-glucosidase inhibitory activity assay (pNPG substrate, absorbance 405 nm); format: biochemical
Description: ^1H- and ^13C-NMR spectra and correlation NMR spectra such as COSY, HMBC, HMQC, and DEPT were obtained from a Bruker Avance DPX 400 (or 600) spectrometer (Berlin, Germany). These were obtained at operating frequencies of 400 MHz (^1H) and 100 (or 150) MHz (^13C) with CD3OD, (CD3)2SO, (CD3)2CO, or D2O and TMS was used as an internal standard; chemical shifts were reported in δ values. The α-glucosidase from Saccharomyces sp. (SSG) was purchased from Wako Pure Chemical Industries Ltd (Tokyo, Japan). […] All other chemicals and reagents used were of analytical grade.
The α-glucosidase inhibitory activity of the extracts and fractions was determined using a modified procedure reported method with a slight modification. The α-glucosidase activity was measured using the substrate p-nitrophenyl-α-D-glucopyranoside (pNPG), which is hydrolyzed by α-glucosidase to release the product p-nitrophenol, a colorant that can be monitored at 405 nm. The initial concentration of the enzyme solution was 0.62 unit/mL in 0.1 M phosphate buffer (pH 6.9) and the initial concentration of the substrate solution was 2 mM in the same phosphate buffer. The enzyme solution was mixed with water and the samples or controls in a clear 96-well microplate (flat bottom) and the reaction was initiated by addition of the substrate to the solution. The plates were incubated at 37 °C for 5 min and the reaction was terminated by the addition of 0.1 M Na2CO3. […] Background absorbance was determined using a non-enzyme control microplate containing the buffer and was subtracted from the absorbance of the samples and controls.

[4] = biological target: T1, protein tyrosine phosphatase 1β (PTP1β) (Homo sapiens, UniProt P18031); experiment: PTP1β inhibitory activity assay (colorimetric kit, IR5 phosphopeptide substrate); format: biochemical; conditions: for inhibition at 10 µg/mL: 10 μg/mL; for inhibition at 10 µg/mL / IC50: - is no activity; for IC50: isolated compounds
T1 sequence (P18031 1-322 limits assumed): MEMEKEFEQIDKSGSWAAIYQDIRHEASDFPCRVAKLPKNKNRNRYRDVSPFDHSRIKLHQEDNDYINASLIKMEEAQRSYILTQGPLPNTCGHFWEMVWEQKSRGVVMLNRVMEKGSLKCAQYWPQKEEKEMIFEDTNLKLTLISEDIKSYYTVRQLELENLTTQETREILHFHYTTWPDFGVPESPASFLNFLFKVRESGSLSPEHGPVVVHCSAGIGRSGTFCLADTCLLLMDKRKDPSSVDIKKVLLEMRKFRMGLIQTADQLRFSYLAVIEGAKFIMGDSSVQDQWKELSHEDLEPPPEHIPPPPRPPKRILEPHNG
Description: PTP1β tyrosine phosphatase drug discovery kit is a colorimetric, non-radioactive assay designed to measure the phosphatase activity of purified PTP1β. […] Following incubation at 37 °C for 30 min, the reaction was terminated with the BIOMOL RED^TM reagent. The amount of […] produced was estimated by measuring the absorbance at 620 nm. The non-enzymatic hydrolysis of the IR5 substrate was corrected by measuring the increase in absorbance at 620 nm obtained in the absence of PTP1β enzyme.

[5] = tested on: rat lens aldose reductase; conditions: compounds from X. strumarium; cited from earlier work
[6] = biological target: α-glucosidase; parameters: method as in ref 15 (Chen et al.); conditions: compounds isolated from aerial parts of Gynura divaricate; ref 15 (Chen et al.); read-out: inhibitory effects against α-glucosidase; cited from earlier work
[7] = ABTS^+ radical scavenging activity assay; conditions: for IC50 / IC50 ABTS^+ radical scavenging: isolated compounds
Description: The method described by Li et al. was used with slight modifications. ABTS^+ diammonium salt (2 mM) and potassium persulfate (3.5 mM) were mixed, diluted in distilled water and kept in the dark at room temperature for 24 h before use. After addition of ABTS^+ solution to 10 µL of antioxidant, measurements were recorded at 10 min post reaction. The percentage inhibition of absorbance at 750 nm was calculated and plotted as a function of concentration of antioxidants. Trolox was used as positive control.

[8] = isolated compounds, - is no activity
[9] = Table 2, crude extract and fractions, - is no activity

SMILES	Inhibition (%) AGEs ([1]; 100 μg/mL)	Inhibition (%) α-glucosidase ([3]; 50 μg/mL, - is no activity)	inhibition at 10 µg/mL [4]	IC50 [4]	also measured
O=C(/C=C/c1ccc(O)c(O)c1)O[C@@H]1C[C@](O)(C(=O)O)C[C@@H](OC(=O)/C=C/c2ccc(O)c(O)c2)[C@H]1O [compound 10, 3,5-di-O-caffeoylquinic acid]	42.91%	52.85%	18.4%	> 19.4 µM	recombinant aldose reductase inhibitory activity [2]: strong; Inhibition (%) α-glucosidase ([3]; 5 μg/mL): 9.34%; Inhibition (%) α-glucosidase ([3]; 25 μg/mL): 33.72%; Inhibition (%) α-glucosidase ([3]; 100 μg/mL): 99.44%; IC50 ([3]; isolated compounds): 88.1 µM; IC50 α-glucosidase [3, 8]: 45.48 ± 4.52 µg/mL (≈ 88.1 µM); rat lens aldose reductase inhibitory activity [5]: strong
O=C(/C=C/c1ccc(O)c(O)c1)O[C@H]1[C@H](O)C[C@](O)(C(=O)O)C[C@H]1OC(=O)/C=C/c1ccc(O)c(O)c1 [3,4-di-O-CQA]	–	–	–	–	IC50 [6]: 187 µM
COc1c(O)cc2oc(-c3ccc(O)c(O)c3)c(OC3OC(C(=O)O)C(O)C(O)C3O)c(=O)c2c1O (stereo not shown) [compound 8, patuletin-3-glucuronide]	6.11%	6.11%	< 0%	> 19.7 µM	–
O=C(/C=C/c1ccc(O)c(O)c1)O[C@@H]1C[C@](OC(=O)/C=C/c2ccc(O)c(O)c2)(C(=O)O)C[C@@H](O)[C@H]1O [compound 11, 1,5-di-O-caffeoylquinic acid]	25.04%	46.20%	10.6%	> 19.4 µM	recombinant aldose reductase inhibitory activity [2]: strong; rat lens aldose reductase inhibitory activity [5]: strong
O=C(CCO)c1ccc(O)cc1 [compound 2, 3-hydroxy-1-(4-hydroxyphenyl) propan-1-one]	8.50%	8.60%	5.88%	> 60.2 µM	–
O=C(/C=C/c1ccc(O)c(O)c1)O[C@@H]1C[C@](OC(=O)/C=C/c2ccc(O)c(O)c2)(C(=O)O)C[C@@H](OC(=O)/C=C/c2ccc(O)c(O)c2)[C@H]1O [compound 13, 1,3,5-tri-O-caffeoylquinic acid]	40.22%	22.05%	39.2%	> 14.7 µM	recombinant aldose reductase inhibitory activity [2]: strong; rat lens aldose reductase inhibitory activity [5]: strong
C[C@H]1O[C@H](O[C@H]2[C@H](O)[C@@H](O)[C@@H](O[C@H]3[C@H](O)[C@@H](O)C(O)O[C@@H]3CO)O[C@@H]2CO)[C@H](O)[C@@H](O)[C@@H]1N[C@H]1C=C(CO)[C@@H](O)[C@H](O)[C@H]1O (stereo partly shown) [Acarbose, reference compound]	–	16.98%	–	–	Inhibition (%) α-glucosidase ([3]; 250 μg/mL): 41.06%; Inhibition (%) α-glucosidase ([3]; 500 μg/mL): 60.29%; Inhibition (%) α-glucosidase ([3]; 1000 μg/mL): 106.14%; IC50 α-glucosidase [3, 9]: 377.19 ± 38.17 µg/mL (≈ 584 µM); IC50 ([3]; isolated compounds): 585 µM; IC50 α-glucosidase [3, 8]: 377.19 ± 37.8 µg/mL (≈ 584 µM)
Cc1c(C)c2c(c(C)c1O)CCC(C)(C(=O)O)O2 (stereo not shown) [Trolox, reference compound]	–	–	–	–	Inhibition (%) ABTS^+ ([7]; 1.66 μg/mL): 17.27%; Inhibition (%) ABTS^+ ([7]; 8.33 μg/mL): 54.14%; Inhibition (%) ABTS^+ ([7]; 16.66 μg/mL): 95.06%; IC50 ABTS^+ [7, 9]: 7.51 ± 0.58 µg/mL (≈ 30 µM); IC50 [7]: 29.7 µM; IC50 ABTS^+ radical scavenging ([7]; - is no activity): 7.43 ± 0.71 µg/mL (≈ 29.7 µM)
Nc1ccn([C@@H]2O[C@H](CO)[C@@H](O)[C@H]2O)c(=O)n1 [compound 3, cytidine]	33.16%	4.70%	< 0%	> 41.1 µM	–
N=C(N)NN [Aminoguanidine, reference compound]	37.84%	–	–	–	Inhibition (%) AGEs ([1]; 50 μg/mL): 27.97%; Inhibition (%) AGEs ([1]; 200 μg/mL): 61.01%; Inhibition (%) AGEs ([1]; 400 μg/mL): 98.17%; IC50 AGEs ([1]; Table 2, crude extract and fractions): 166.22 ± 16.29 µg/mL (≈ 2240 µM); IC50 ([1]; isolated compounds): 1.41 mM; IC50 AGEs ([1]; isolated compounds): 155.88 ± 15.45 µg/mL (≈ 2100 µM)
O=C(/C=C/c1ccc(O)c(O)c1)O[C@@H]1C[C@@](OC(=O)/C=C/c2ccc(O)c(O)c2)(C(=O)O)C[C@@H](O)[C@@H]1O [compound 12, 1,3-di-O-caffeoylquinic acid]	40.19%	38.37%	22.3%	> 19.4 µM	recombinant aldose reductase inhibitory activity [2]: strong; rat lens aldose reductase inhibitory activity [5]: strong
Cc1ccc(C(=O)Nc2ccc(S(=O)(=O)O)c3cc(S(=O)(=O)O)cc(S(=O)(=O)O)c23)cc1NC(=O)c1cccc(NC(=O)Nc2cccc(C(=O)Nc3cc(C(=O)Nc4ccc(S(=O)(=O)O)c5cc(S(=O)(=O)O)cc(S(=O)(=O)O)c45)ccc3C)c2)c1 [Suramin, reference compound]	–	–	–	–	inhibition at 1.43 µg/mL ([4]; 1.43 μg/mL): 10.4%; inhibition at 3.57 µg/mL ([4]; 3.57 μg/mL): 26.4%; inhibition at 7.15 µg/mL ([4]; 7.15 μg/mL): 52.2%; inhibition at 14.29 µg/mL ([4]; read-out: Inhibition (%) PTP1β): 83.6%
OC[C@H]1O[C@H](OC[C@H]2O[C@H](O[C@]3(CO)O[C@H](CO)[C@@H](O)[C@@H]3O)[C@H](O)[C@@H](O)[C@@H]2O)[C@H](O)[C@@H](O)[C@H]1O [compound 14, raffinose]	14.99%	5.82%	< 0%	> 19.8 µM	–
O=C(O)C1OC(Oc2c(-c3ccc(O)c(O)c3)oc3cc(O)cc(O)c3c2=O)C(O)C(O)C1O (stereo not shown) [compound 9, quercetin-3-O-glucuronide]	23.96%	15.40%	10.7%	> 20.9 µM	–
O=C(O)c1ccc(O)c(O)c1 [compound 1, protocatechuic acid]	9.49%	17.45%	28.6%	> 64.9 µM	Inhibition (%) ABTS^+ ([7]; 1.66 μg/mL): 25.17%; Inhibition (%) ABTS^+ ([7]; 8.33 μg/mL): 68.72%; Inhibition (%) ABTS^+ ([7]; 16.66 μg/mL): 97.22%; IC50 [7]: 32.9 µM; IC50 ABTS^+ radical scavenging ([7]; - is no activity): 4.94 ± 0.38 µg/mL (≈ 32.1 µM)
O=C(/C=C/c1ccc(O)c(O)c1)O[C@@H]1C[C@](O)(C(=O)O)C[C@@H](O)[C@H]1O [compound 5, chlorogenic acid]	7.47%	6.60%	–	–	–
